According to doi:10.1101/2021.06.15.448479v1 (biorxiv, 2021):

Key:
[1] = biological target: T1, ACER3 (Homo sapiens, UniProt Q9NUN7); experiment: FRETcer1 hydrolysis, FRET, crude membranes of overexpressing Sf9 cells; assay type: cell-based
T1 sequence (Q9NUN7 1-267): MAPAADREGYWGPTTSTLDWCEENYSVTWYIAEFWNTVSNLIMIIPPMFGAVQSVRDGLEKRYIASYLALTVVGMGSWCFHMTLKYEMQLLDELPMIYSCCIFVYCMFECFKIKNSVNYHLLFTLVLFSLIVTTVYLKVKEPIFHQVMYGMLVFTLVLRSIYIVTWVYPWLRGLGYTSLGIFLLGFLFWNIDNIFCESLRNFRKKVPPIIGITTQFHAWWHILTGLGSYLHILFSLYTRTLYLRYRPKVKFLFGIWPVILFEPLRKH

[2] = biological target: T1, ACER3; experiment: as above; assay type: biochemical
[3] = biological target: T1, ACER3; experiment: biochemical
[4] = substrate: Cc1c(Br)c(=O)oc2cc3c(cc12)OC(CC(=O)NCCCCCC(=O)N[C@@H](CO)[C@H](O)/C=C/CCCCCCCCCNc1ccc([N+](=O)[O-])c2nonc12)O3; experiment: cells, lysate or membranes; settings: detergent-purified ACER3

Molecule	IC50 [1] [nM]	IC50 [3] [nM]	further results
CCCC(C)NC(=O)c1ccc(Cl)c(Cl)c1 (stereo not shown) [NSC405020]	5290 ± 2160		
Cc1noc(CCNC(=O)N2CCC(c3ccc(F)c(F)c3)CC2)n1 [Z1124621112]	1310 ± 950		
O=C(Nc1cnn(C2CCC2)c1)N1CCC(c2cccc(F)c2)CC1 [Z2956776388]	1040 ± 350		
CCCC(C)C(=O)Nc1ccc(Cl)c(C(F)(F)F)c1 (stereo not shown) [compound 02, Compound 02]			IC50 [2]: 700 nM
CC(C)[C@H]1CC[C@H](C(=O)Nc2ccc(Cl)c(Cl)c2)CC1 [compound 03, N-(3,4-dichlorophenyl)-4-isopropylcyclohexane-1-carboxamide]			IC50 [2]: 710 nM
CCCCCCCCCCCCCCCC(=O)O [palmitic acid]		12600	
CCCCCC/C=C\CCCCCCCC(=O)O [palmitoleic acid]		1900	
ACER3 (Homo sapiens) (protein) MAPAADREGYWGPTTSTLDWCEENYSVTWYIAEFWNTVSNLIMIIPPMFGAVQSVRDGLEKRYIASYLALTVVGMGSWCFHMTLKYEMQLLDELPMIYSCCIFVYCMFECFKIKNSVNYHLLFTLVLFSLIVTTVYLKVKEPIFHQVMYGMLVFTLVLRSIYIVTWVYPWLRGLGYTSLGIFLLGFLFWNIDNIFCESLRNFRKKVPPIIGITTQFHAWWHILTGLGSYLHILFSLYTRTLYLRYRPKVKFLFGIWPVILFEPLRKH			Km [4]: 10.76 ± 2.03 µM

Further lines, with some results ahead:

IC50 [1] [nM]	IC50 [3] [nM]	Molecule	further results
1210 ± 740		CCCCNC(=O)Cc1noc(C(C)c2cccc(O)c2)n1 (stereo not shown) [Z3016340412]	
	1500	CCCCC/C=C\C/C=C\CCCCCCCC(=O)O [linoleic acid]	
	9300	CCCCCCCCCCCCCC(=O)O [myristic acid]	
	2300	CCCCCCCC/C=C\CCCCCCCC(=O)O [oleic acid]	
	29300	CCCCCCCCCCCCCCCCCC(=O)O [stearic acid]	
